Data from PubChem BioAssay (NCI).
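These data come from cells grown in 96-well plates and exposed to compound for 48 hours at five concentrations. TGI: total growth inhibition.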

Key:
Assay in all cases: NCI anticancer screen, dose series, 48 h
COLO 205 colon = tested on: COLO 205 colon
LXFL 529 NSCLC = tested on: LXFL 529 NSCLC
M14 melanoma = tested on: M14 melanoma
EKVX NSCLC = tested on: EKVX NSCLC
M19-MEL melanoma = tested on: M19-MEL melanoma
SW-620 colon = tested on: SW-620 colon
U251 CNS = tested on: U251 CNS
CAKI-1 renal = tested on: CAKI-1 renal
KM12 colon = tested on: KM12 colon
SNB-78 CNS = tested on: SNB-78 CNS
DMS 114 small cell lung = tested on: DMS 114 small cell lung
HOP-62 NSCLC = tested on: HOP-62 NSCLC
KM20L2 colon = tested on: KM20L2 colon
DLD-1 colon = tested on: DLD-1 colon
A498 renal = tested on: A498 renal
SNB-19 CNS = tested on: SNB-19 CNS
SF-295 CNS = tested on: SF-295 CNS
SK-OV-3 ovarian = tested on: SK-OV-3 ovarian
OVCAR-8 ovarian = tested on: OVCAR-8 ovarian
XF 498 CNS = tested on: XF 498 CNS
NCI-H23 lung = tested on: NCI-H23 lung
SN12C renal = tested on: SN12C renal
ACHN renal = tested on: ACHN renal
SK-MEL-28 melanoma = tested on: SK-MEL-28 melanoma
LOX IMVI melanoma = tested on: LOX IMVI melanoma
HCT-116 colon = tested on: HCT-116 colon
TK-10 renal = tested on: TK-10 renal
OVCAR-3 ovarian = tested on: OVCAR-3 ovarian
MALME-3M melanoma = tested on: MALME-3M melanoma
RXF 393 renal = tested on: RXF 393 renal
UACC-62 melanoma = tested on: UACC-62 melanoma
NCI-H460 lung = tested on: NCI-H460 lung
DMS 273 small cell lung = tested on: DMS 273 small cell lung
CCRF-CEM leukemia = tested on: CCRF-CEM leukemia
NCI-H226 lung = tested on: NCI-H226 lung
HL-60(TB) leukemia = tested on: HL-60(TB) leukemia
SK-MEL-5 melanoma = tested on: SK-MEL-5 melanoma
NCI-H522 lung = tested on: NCI-H522 lung
RPMI-8226 leukemia = tested on: RPMI-8226 leukemia
A549 NSCLC = tested on: A549 NSCLC
SF-539 CNS = tested on: SF-539 CNS
SNB-75 CNS = tested on: SNB-75 CNS
SK-MEL-2 melanoma = tested on: SK-MEL-2 melanoma
MOLT-4 leukemia = tested on: MOLT-4 leukemia
HCC-2998 colon = tested on: HCC-2998 colon
786-0 renal = tested on: 786-0 renal
IGROV1 ovarian = tested on: IGROV1 ovarian
SF-268 CNS = tested on: SF-268 CNS
OVCAR-5 ovarian = tested on: OVCAR-5 ovarian
UO-31 renal = tested on: UO-31 renal
K-562 leukemia = tested on: K-562 leukemia
OVCAR-4 ovarian = tested on: OVCAR-4 ovarian
HT29 colon = tested on: HT29 colon
HCT-15 colon = tested on: HCT-15 colon
NCI/ADR-RES ovarian = tested on: NCI/ADR-RES ovarian
DU-145 prostate = tested on: DU-145 prostate
T-47D breast = tested on: T-47D breast
MDA-MB-231 breast = tested on: MDA-MB-231 breast
UACC-257 melanoma = tested on: UACC-257 melanoma
MDA-MB-435 = tested on: MDA-MB-435
HS 578T breast = tested on: HS 578T breast
BT-549 breast = tested on: BT-549 breast
MCF7 breast = tested on: MCF7 breast
PC-3 prostate = tested on: PC-3 prostate
HOP-92 NSCLC = tested on: HOP-92 NSCLC
MDA-N = tested on: MDA-N
SR leukemia = tested on: SR leukemia

COc1ccc(/C=C2\CN(C)Cc3c2nc(N)nc3-c2ccc(OC)cc2)cc1
TGI (COLO 205 colon): > 100 µM | TGI (LXFL 529 NSCLC): > 100 µM | TGI (M14 melanoma): > 100 µM | TGI (EKVX NSCLC): > 100 µM | TGI (M19-MEL melanoma): > 100 µM | TGI (SW-620 colon): > 100 µM | TGI (U251 CNS): > 100 µM | TGI (CAKI-1 renal): > 100 µM | TGI (KM12 colon): > 100 µM | TGI (SNB-78 CNS): > 100 µM | TGI (DMS 114 small cell lung): > 100 µM | TGI (HOP-62 NSCLC): > 100 µM | TGI (KM20L2 colon): > 100 µM | TGI (DLD-1 colon): > 100 µM | TGI (A498 renal): > 100 µM | TGI (SNB-19 CNS): > 100 µM | TGI (SF-295 CNS): > 100 µM | TGI (SK-OV-3 ovarian): > 100 µM | TGI (OVCAR-8 ovarian): > 100 µM | TGI (XF 498 CNS): > 100 µM | TGI (NCI-H23 lung): > 100 µM | TGI (SN12C renal): > 100 µM | TGI (ACHN renal): > 100 µM | TGI (SK-MEL-28 melanoma): > 100 µM | TGI (LOX IMVI melanoma): > 100 µM | TGI (HCT-116 colon): > 100 µM | TGI (TK-10 renal): > 100 µM | TGI (OVCAR-3 ovarian): > 100 µM | TGI (MALME-3M melanoma): > 100 µM | TGI (RXF 393 renal): > 100 µM | TGI (UACC-62 melanoma): > 100 µM | TGI (NCI-H460 lung): > 100 µM | TGI (DMS 273 small cell lung): > 100 µM | TGI (CCRF-CEM leukemia): > 100 µM | TGI (NCI-H226 lung): > 100 µM | TGI (HL-60(TB) leukemia): 85.2 µM | TGI (SK-MEL-5 melanoma): > 100 µM | TGI (NCI-H522 lung): > 100 µM | TGI (RPMI-8226 leukemia): > 100 µM | TGI (A549 NSCLC): > 100 µM | TGI (SF-539 CNS): > 100 µM | TGI (SNB-75 CNS): > 100 µM | TGI (SK-MEL-2 melanoma): > 100 µM | TGI (MOLT-4 leukemia): > 100 µM | TGI (HCC-2998 colon): > 100 µM | TGI (786-0 renal): > 100 µM | TGI (IGROV1 ovarian): > 100 µM | TGI (SF-268 CNS): > 100 µM | TGI (OVCAR-5 ovarian): > 100 µM | TGI (UO-31 renal): > 100 µM | TGI (K-562 leukemia): > 100 µM

CCOc1ccc2nc(NC(=O)C(=O)C(C(=O)c3ccccc3-c3ccccc3)C3OC(=O)c4ccccc43)sc2c1 (stereo not drawn)
TGI (OVCAR-4 ovarian): > 100 µM | TGI (HT29 colon): 43.6 µM | TGI (COLO 205 colon): 37 µM | TGI (LXFL 529 NSCLC): 41.1 µM | TGI (M14 melanoma): > 67.2 µM | TGI (HCT-15 colon): > 62.4 µM | TGI (EKVX NSCLC): 47.5 µM | TGI (M19-MEL melanoma): 44.2 µM | TGI (SW-620 colon): 60.1 µM | TGI (NCI/ADR-RES ovarian): 37.9 µM | TGI (U251 CNS): 31.7 µM | TGI (CAKI-1 renal): 53.2 µM | TGI (KM12 colon): 32.5 µM | TGI (SNB-78 CNS): > 100 µM | TGI (DMS 114 small cell lung): 35 µM | TGI (HOP-62 NSCLC): 99.3 µM | TGI (KM20L2 colon): 54.6 µM | TGI (DLD-1 colon): > 100 µM | TGI (A498 renal): 48.1 µM | TGI (SNB-19 CNS): 36.3 µM | TGI (SF-295 CNS): > 93.8 µM | TGI (SK-OV-3 ovarian): > 72.6 µM | TGI (OVCAR-8 ovarian): 25.7 µM | TGI (XF 498 CNS): 49.1 µM | TGI (DU-145 prostate): 56.1 µM | TGI (NCI-H23 lung): 47.4 µM | TGI (SN12C renal): 51.9 µM | TGI (ACHN renal): > 100 µM | TGI (SK-MEL-28 melanoma): 54.2 µM | TGI (LOX IMVI melanoma): 39.4 µM | TGI (HCT-116 colon): 33.7 µM | TGI (TK-10 renal): 41.9 µM | TGI (T-47D breast): 60.7 µM | TGI (OVCAR-3 ovarian): 89.8 µM | TGI (MALME-3M melanoma): 34.8 µM | TGI (RXF 393 renal): 18.1 µM | TGI (UACC-62 melanoma): 34.8 µM | TGI (NCI-H460 lung): 42.7 µM | TGI (DMS 273 small cell lung): > 100 µM | TGI (CCRF-CEM leukemia): 64.2 µM | TGI (MDA-MB-231 breast): 70.8 µM | TGI (UACC-257 melanoma): > 96 µM | TGI (NCI-H226 lung): 21.5 µM | TGI (HL-60(TB) leukemia): 68.7 µM | TGI (SK-MEL-5 melanoma): 31.3 µM | TGI (NCI-H522 lung): 32 µM | TGI (MDA-MB-435): 65.1 µM | TGI (RPMI-8226 leukemia): 52.4 µM | TGI (A549 NSCLC): > 71.2 µM | TGI (SF-539 CNS): 36.7 µM | TGI (HS 578T breast): > 100 µM | TGI (SNB-75 CNS): 61.6 µM | TGI (BT-549 breast): 81.7 µM | TGI (SK-MEL-2 melanoma): 60.1 µM | TGI (MOLT-4 leukemia): 99.6 µM | TGI (HCC-2998 colon): 33.1 µM | TGI (786-0 renal): 34.6 µM | TGI (IGROV1 ovarian): > 68 µM | TGI (SF-268 CNS): 79.5 µM | TGI (MCF7 breast): > 100 µM | TGI (PC-3 prostate): 41.7 µM | TGI (OVCAR-5 ovarian): > 100 µM | TGI (UO-31 renal): 52.8 µM | TGI (K-562 leukemia): > 67 µM | TGI (HOP-92 NSCLC): 46.8 µM | TGI (MDA-N): 70.9 µM | TGI (SR leukemia): 43 µM
